# Measured values as given in US11884647B2, “Compounds and methods for targeting pathogenic blood vessels” (THE REGENTS OF THE UNIVERSITY OF CALIFORNIA, priority 2019, dated 2024).
# Tested on: tumor endothelial cells (LL/2 lung cancer tumor)
# Assay: Lung LL2 ex vivo model of tumor angiogenesis
# Type: cell-based, mouse
# Conditions: Lung LL2 ex vivo; Conc. 10 μm; 48 hrs
# Procedure: This example describes a procedure to prepare a primary tumor angiogenesis model for assessing the efficacy of anti-cancer candidate agents.
# 1. The day before the experiment, spray all necessary tools with 70% ethanol and sterilize them under UV light overnight, including blade, dissecting and micro-dissecting scissors and […]. Place 24-well dishes at 4° C. to pre-chill plates and thaw Matrigel 24 hours before tumor dissection.
# 2. Spray 70% ethanol on working bench. Prepare two sterile petri dishes with 10 mL sterile PBS. Steps 3 and 4 are for mouse tumor models. For fresh human tumor, directly go to step 5.
# 3. Euthanize the tumor-bearing mice. Spray 70% ethanol on the mouse and remove the tumor using sterilized dissecting tools (avoid the fur). Rinse the tumor in petri dish with sterile PBS to remove ethanol and fur. Transfer the tumor to a new petri dish with PBS for dissection. Place the dish on ice.
# 4. Using pre-chilled sterile pipet tips to seed regular Matrigel in 24 well plates on ice. Matrigel (30 μL) is dropped in the middle of each well without touching the edge of the well (avoid introducing bubbles if possible).
# 5. Cut the tumor in halves using the sterile blade. Identify and isolate healthy tumor tissue that is not necrotic and is within the tumor capsule. Cut the healthy tumor tissue into small pieces. For instance, a suitable size for the tumor tissue is 0.5 mm (H)×0.5 mm (L)×0.3 mm (D) with a total volume of 0.075 mm^3.
# 6. Gently transfer and embed each tumor piece in the Matrigel drop in the 24-well plate. Place the embedded piece in the bottom and middle of each Matrigel drop. Keep the plate on ice all the time.
# 7. After seeding the tumor pieces, plates are incubated in a 37° C. cell culture incubator without medium for 10 minutes in order for the Matrigel to solidify.
# 8. Endothelial Growth Medium (0.5 mL) is added to each well and incubated at 37° C. with 5% CO2. Wait until the new endothelial cells have grown out of the tumor or are larger than 3 mm in diameter until treatment. This usually takes 4 days for the LL2 Lewis lung cancer model and 7 days for the CT26 colon cancer model. For human tumor models, the growth time is typically 2-3 weeks, depending on the tumor type. Media is changed every 4 days during prolonged culture. Typically, when the tumor tissue grows to 2 mm in diameter, it is good for drug testing. A size of about 3 mm in diameter can make visualization easier.
# 9. When the assay is ready to be analyzed for cell death (e.g., 48 hours after drug addition), prepare the dye mixture by mixing 6 μL of green dye to stain live cells (5 mg/mL Fluorescein diacetate or FDA in DMSO) with 30 μL of red dye (2.5 mg/mL Propidium iodide or PI in PBS) to stain dead cells in an Eppendorf tube. The FDA dye needs to be stored frozen in a −20° C. freezer because it has a labile ester bond.
# 10. Add 1 μL of the dye mixture to each well of the 24-well dish. It is usually performed one 24-well dish at a time given the amount of time needed to take pictures (the green dye is not as stable in the cells in the long term).
# 11. Gently rock the dish a few times to mix the dye with the media in the wells and incubate the dish at 37° C. for 10 min (too long incubation can make the green signal too intense).
# 12. Wash each well with 0.5 mL of sterile PBS and then add 0.5 mL of phenol red free SFM to each well. Alternatively 0.5 mL of regular Endothelial Cell Growth Media can be added to each well if this well needs to be continuously maintained after the experiment.
# 13. Look through all wells on an inverted microscope using the 2× objective lens to observe morphological changes.
# 14. Taking pictures in the red and green channels would allow not only the recording of the result but also more accurate quantitation of the result. To take pictures for all the wells, first pick a well that has robust red and green signals. […]
row,SMILES,48 hrs (morphology observations after 48 hours)
1,"CCCCCCCCCCOc1ccc(S(=O)(=O)c2cnc3ccc([S+](C)[O-])cc3c2N2CCC(N3CCC(N4CCCCC4)CC3)CC2)cc1F (stereo not drawn) [compound 290, ([1,4′:1′,4″-terpiperidin]-1″-yl)-3-((4-(decyloxy)-3-fluorophenyl)sulfonyl)-6-(methylsulfinyl)quinoline]",*** (100% of endothelial cells vesicularize in cell shape)

# Same assay, conditions: Lung LL2 ex vivo; Conc. 10 μm; drug treatment two days
row,SMILES,Cell death
1,"CCCCCCCCCCOc1ccc(S(=O)(=O)c2cnc3ccc([S+](C)[O-])cc3c2N2CCC(N3CCC(N4CCCCC4)CC3)CC2)cc1F (stereo not drawn) [compound 290, ([1,4′:1′,4″-terpiperidin]-1″-yl)-3-((4-(decyloxy)-3-fluorophenyl)sulfonyl)-6-(methylsulfinyl)quinoline]",50%

# Same assay, conditions: Lung LL2 ex vivo; Conc. 40 μm; drug treatment two days
row,SMILES,Cell death
1,"CCCCOc1ccc(S(=O)(=O)c2cnc3ccc(SC)cc3c2N2CCCN(C3COC3)CC2)cc1 [compound 355, 3-((4-butoxyphenyl)sulfonyl)-6-(methylthio)-4-(4-(oxetan-3-yl)-1,4-diazepan-1-yl)quinoline]",0%

# Same assay, conditions: Mus musculus, Endothelial cell, 48 h, read-out: Cell death
SMILES,cytotoxicity at 20 µM,cytotoxicity at 40 µM,cytotoxicity at 10 µM
"CCCCOc1ccc(S(=O)(=O)c2cnc3ccc(S(C)(=O)=O)cc3c2N2CCC(N3CCC(O)CC3)CC2)cc1 [compound 170, 1′-(3-((4-butoxyphenyl)sulfonyl)-6-(methylsulfonyl)quinolin-4-yl)-[1,4′-bipiperidin]-4-ol]",10%,–,–
"CCCCCCCCCCCCOc1ccc(S(=O)(=O)c2cnc3ccc([S+](C)[O-])cc3c2N2CCC(N3CCC(N4CCN(CCO)CC4)CC3)CC2)cc1 (stereo not drawn) [compound 340, 2-(4-(1′-(3-((4-(dodecyloxy)phenyl)sulfonyl)-6-(methylsulfinyl)quinolin-4-yl)-[1,4′-bipiperidin]-4-yl)piperazin-1-yl)ethan-1-ol]",60%,–,–
"CCCCCCCCCCCCCCOc1ccc(S(=O)(=O)c2cnc3ccc([S+](C)[O-])cc3c2N2CCC(N3CCC(N4CCC(O)CC4)CC3)CC2)cc1 (stereo not drawn) [compound 375, 1″-(6-(methylsulfinyl)-3-((4-(tetradecyloxy)phenyl)sulfonyl)quinolin-4-yl)-[1,4′:1′,4″-terpiperidin]-4-ol]",50%,–,–
"CCCCCCCOc1ccc(S(=O)(=O)c2cnc3ccc(SC)cc3c2N2CCN(CC3CCN(Cc4ccccc4)CC3)CC2)cc1 [compound 275, 4-(4-((1-benzylpiperidin-4-yl)methyl)piperazin-1-yl)-3-((4-(heptyloxy)phenyl)sulfonyl)-6-(methylthio)quinoline]",5%,–,–
"CCCCCCCOc1ccc(S(=O)(=O)c2cnc3ccc(SC)cc3c2N2CCC(N3CCN(C)CC3)CC2)cc1 [compound 246, 3-((4-(heptyloxy)phenyl)sulfonyl)-4-(4-(4-methylpiperazin-1-yl)piperidin-1-yl)-6-(methylthio)quinoline]",95%,–,–
COc1ccc(N2CCN(c3c(S(=O)(=O)c4ccc(OC)cc4)cnc4cc(OC)c(OC)cc34)CC2=O)cc1 [compound 318],–,30%,–
"COc1ccc(S(=O)(=O)c2cnc3cc(OC)c(OC)cc3c2N2CCC(N3CCCCC3)CC2)cc1OC [compound 122, 4-([1,4′-bipiperidin]-1′-yl)-3-((3,4-dimethoxyphenyl)sulfonyl)-6,7-dimethoxyquinoline]",10%,–,–
"COc1ccc(S(=O)(=O)c2cnc3ccc([S+](C)[O-])cc3c2NN2CCN(C)CC2)cc1 (stereo not drawn) [compound 227, 3-((4-methoxyphenyl)sulfonyl)-N-(4-methylpiperazin-1-yl)-6-(methylsulfinyl)quinolin-4-amine]",–,10%,–
"CCc1ccc(S(=O)(=O)c2cnc3ccc(OC(F)(F)F)cc3c2NN2CCOCC2)cc1 [compound 126, N-(3-((4-ethylphenyl)sulfonyl)-6-(trifluoromethoxy)quinolin-4-yl)morpholin-4-amine]",10%,–,–
"COc1ccc(S(=O)(=O)c2cnc3ccc([N+](=O)[O-])cc3c2N2CCC(N3CCCCC3)CC2)cc1 [compound 114, 4-([1,4′-bipiperidin]-1′-yl)-3-((4-methoxyphenyl)sulfonyl)-6-nitroquinoline]",5%,–,–
"CCCCOc1ccc(S(=O)(=O)c2cnc3ccc(C(=O)OCC)cc3c2N2CCS(=O)(=O)CC2)cc1 [compound 196, ethyl 3-((4-butoxyphenyl)sulfonyl)-4-(1,1-dioxidothiomorpholino)quinoline-6-carboxylate]",–,30%,–
"CNC(=O)c1ccc(C2CCN(c3c(S(=O)(=O)c4ccc(OC)cc4)cnc4cc(OC)c(OC)cc34)CC2)cc1 [compound 310, 4-(1-(6,7-dimethoxy-3-((4-methoxyphenyl)sulfonyl)quinolin-4-yl)piperidin-4-yl)-N-methylbenzamide]",–,10%,–
"CCCCOc1ccc(S(=O)(=O)c2cnc3ccc(SC)cc3c2N2CCC(N3CCOCC3)CC2)cc1 [compound 229, 4-(1-(3-((4-butoxyphenyl)sulfonyl)-6-(methylthio)quinolin-4-yl)piperidin-4-yl)morpholine]",–,30%,–
"COc1ccc(S(=O)(=O)c2cnc3cc(OC)c(OC)cc3c2N2CCCN(C3CCSCC3)CC2)cc1 [compound 329, 6,7-dimethoxy-3-((4-methoxyphenyl)sulfonyl)-4-(4-(tetrahydro-2H-thiopyran-4-yl)-1,4-diazepan-1-yl)quinoline]",–,40%,–
"CCOC(=O)c1ccc2ncc(S(=O)(=O)c3ccc(OC)cc3)c(-n3ccnc3)c2c1 [compound 141, ethyl 4-(1H-imidazol-1-yl)-3-((4-methoxyphenyl)sulfonyl)quinoline-6-carboxylate]",90%,–,–
"CCCCOc1ccc(S(=O)(=O)c2cnc3ccc(SC)cc3c2N2CCC(N3CCC(O)(c4ccccc4)CC3)CC2)cc1 [compound 232, 1′-(3-((4-butoxyphenyl)sulfonyl)-6-(methylthio)quinolin-4-yl)-4-phenyl-[1,4′-bipiperidin]-4-ol]",–,10%,–
"CCCCCCCOc1ccc(S(=O)(=O)c2cnc3ccc(SC)cc3c2N2CCCN(CCN3CCCCC3)CC2)cc1 [compound 248, 3-((4-(heptyloxy)phenyl)sulfonyl)-6-(methylthio)-4-(4-(2-(piperidin-1-yl)ethyl)-1,4-diazepan-1-yl)quinoline]",60%,–,–
"COc1ccc(S(=O)(=O)c2cnc3cc(OC)c(OC)cc3c2N2CCC(N3CCCCC3)CC2)cc1 [compound 320, 4-([1,4′-bipiperidin]-1′-yl)-6,7-dimethoxy-3-((4-methoxyphenyl)sulfonyl)quinoline]",–,30%,–
"CCCCOc1ccc(S(=O)(=O)c2cnc3ccc(SC)cc3c2N2CCC(N3CCSCC3)CC2)cc1 [compound 243, 4-(1-(3-((4-butoxyphenyl)sulfonyl)-6-(methylthio)quinolin-4-yl)piperidin-4-yl)thiomorpholine]",–,20%,–
"CCCCOc1ccc(S(=O)(=O)c2cnc3ccc(OC(F)(F)F)cc3c2N2CCSCC2)cc1 [compound 187, 4-(3-((4-butoxyphenyl)sulfonyl)-6-(trifluoromethoxy)quinolin-4-yl)thiomorpholine]",–,30%,–
"CCCCCCCOc1ccc(S(=O)(=O)c2cnc3ccc([S+](C)[O-])cc3c2N2CCC(N3CCC(O)(c4ccccc4)CC3)CC2)cc1 (stereo not drawn) [compound 263, 1′-(3-((4-(heptyloxy)phenyl)sulfonyl)-6-(methylsulfinyl)quinolin-4-yl)-4-phenyl-[1,4′-bipiperidin]-4-ol]",–,–,100%
"CCCCOc1ccc(S(=O)(=O)c2cnc3ccc([S+](C)[O-])cc3c2N2CCC(N3CCSCC3)CC2)cc1 (stereo not drawn) [compound 245, 4-(1-(3-((4-butoxyphenyl)sulfonyl)-6-(methylsulfinyl)quinolin-4-yl)piperidin-4-yl)thiomorpholine]",–,40%,–
"CCN(c1c(S(=O)(=O)c2ccc(OC)cc2)cnc2cc(OC)c(OC)cc12)C(C)C [compound 294, N-ethyl-N-isopropyl-6,7-dimethoxy-3-((4-methoxyphenyl)sulfonyl)quinolin-4-amine]",–,50%,–
"CCc1ccc(S(=O)(=O)c2cnc3ccc(OC(F)(F)F)cc3c2-n2cccn2)cc1 [compound 109, 3-((4-ethylphenyl)sulfonyl)-4-(1H-pyrazol-1-yl)-6-(trifluoromethoxy)quinoline]",0%,–,–
